Assay results reported in US7977045B2, “Aqueous-based pharmaceutical composition” (Aventis Pharmaceuticals Inc., priority 1996, dated 2011).

Assay: Positron emission tomography of nasal deposition and retention of TAA after spraying the composition
Type: in vivo, human
Method: A dose of the composition can be delivered to a human patient by spraying the composition into each of the patient's nasal cavities. For dose delivery, the pre-compression metering pump (Valois VP7/100S) is placed in a patient's nostril and is then actuated by the patient, resulting in a spray into the nasal cavity. After initial priming, each actuation of the pump delivers from the nasal actuator about 100 mg of composition containing about 55 mcg of TAA. Each bottle of composition will provide at least about 120 metered doses. For the exemplified compositions, the recommended once-daily dosing for adults and children 12 years and older begins at about 220 mcgs of TAA, equivalent to two sprays in each nostril.
A composition comprising the formulation of Examples 1 and 2 was administered to two volunteer patients. Post administration, the patients were evaluated by positron emission tomography in order to determine 1) the amount of time it took for the maximum dose of the TAA medicament to be delivered to various regions of interest within the nasal cavity, and 2) the amount of TAA medicament deposited on the regions of interest over a two hour time period. For purposes of the evaluation, the volume of the head region was segmented into 104 distinct regions of interest. […] The results of evaluation indicate a rapid distribution of the TAA medicament to the target regions of the nose.
The evaluation included also a determination of the percentage of the TAA medicament remaining on the target sites two hours after the it was administered to each of the patients. This percentage was determined by dividing the amount remaining in each region of interest by the total amount remaining in the 104 regions of interest.

[1] = first volunteer, at maximum concha contact
[2] = first volunteer, over a two-hour period
[3] = first volunteer, two hours post administration, share of total remaining in 104 regions
[4] = other (second) volunteer, post dose
[5] = second volunteer, two hours post administration

With `CC1(C)O[C@@H]2C[C@H]3[C@@H]4CCC5=CC(=O)C=C[C@]5(C)[C@@]4(F)[C@@H](O)C[C@]3(C)[C@]2(C(=O)CO)O1` [TAA, triamcinolone acetonide] as the molecule, how does the “dose directly deposited on the target sites (frontal cavity, frontal sinus, maxillary sinuses, superior and inferior concha)” value (both volunteers, amount in region divided by total amount remaining in the 104 regions of interest, two hours) read?
Its value is “greater than 85%”.

What about the “maximum amount of TAA medicament in contact with the frontal cavity region” value (first volunteer) of the same molecule?
Its value is “about 41%”.

What about the “maximum amount of the dose deposited into the frontal sinus” value (first volunteer) of the same molecule?
Its value is “approximately 3.5%”.

And the “maximum amount of the dose deposited into the maxillary sinuses” value (first volunteer)?
The value was about 3.9%.

What about the “time to clearance of TAA medicament from the frontal sinus” value (first volunteer) of the same molecule?
Its value is at most 1 h.

And the “amount of total dose in contact with the inferior concha” value [1]?
Its value is “About 46%”.

And the “amount of total dose in contact with the superior concha” value [1]?
Its value is “about 19%”.

What about the “amount of total dose remaining in the concha tissues (constant value)” value (first volunteer, final time period) of the same molecule?
The value was 3.4-4%.

And the “maximum amount of TAA medicament in contact with the concha regions, % of total dose delivered to the nose” value (first volunteer, intranasal spray of formulation of Examples 1 and 2, PET)?
Its value is “about 65%”.

What about the “dose deposited in the maxillary sinus region” value [2] of the same molecule?
The value was “about 3%”.

What about the “dose deposited on the frontal sinus” value [2] of the same molecule?
Its value is “about 1.2%”.

What about the “time of maximum amount in contact with the concha regions” value (first volunteer, post dose) of the same molecule?
Its value is “about 45 seconds”.

What about the “time of maximum amount in contact with the frontal cavity region” value (first volunteer, post dose) of the same molecule?
Its value is “about 45 seconds”.

And the “time of maximum deposit in the frontal and maxillary sinuses” value (first volunteer, post dose)?
The value was at most 30 s.

And the “medicament still present in the maxillary sinuses” value (first volunteer, two hour acquisition sampling time)?
The value was “approximately 1%”.

And the “total TAA medicament remaining deposited in the frontal cavity” value (first volunteer, two hours after administration, share of total remaining in 104 regions)?
The value was “about 47.9%”.

What about the “amount remaining in the concha region (inferior plus superior)” value (first volunteer, two hours post administration) of the same molecule?
Its value is “about 36.4%”.

And the “total medicament deposited in the inferior concha region” value [3]?
The value was “about 27.8%”.

What about the “total medicament deposited in the superior concha region” value [3] of the same molecule?
Its value is “about 8.6%”.

And the “amount in the frontal cavity region (constant level)” value (first volunteer, two hours post-dose)?
The value was “about 12%”.

What about the “sum of percentages remaining on the target sites (dose deposited directly onto target tissues)” value (first volunteer, two-hour serial sampling period) of the same molecule?
The value was “about 88.5%”.

And the “maximum amount deposited in the frontal sinus” value (other (second) volunteer)?
Its value is “around 3.5%”.

And the “maximum amount deposited in the maxillary sinus” value (other (second) volunteer)?
The value was “about 2%”.

What about the “maximum amount of TAA medicament in contact with the frontal cavity, % of total dose delivered to the nose” value (other (second) volunteer) of the same molecule?
The value was “about 55%”.

What about the “part of the maximum concha amount associated with the inferior concha” value (other (second) volunteer) of the same molecule?
Its value is “about 75%”.

And the “part of the maximum concha amount associated with the superior concha” value (other (second) volunteer)?
Its value is “about 25%”.

And the “administered dose still in contact with the concha regions” value (other (second) volunteer, about two hours post-administration)?
The value was 6-8%.

What about the “dose still resident in the frontal/nasal cavity” value (other (second) volunteer, after two hours) of the same molecule?
Its value is “approximately 22%”.

And the “maximum amount of the drug in contact with the concha regions, % of total dose delivered to the nose” value (other (second) volunteer, intranasal spray of formulation of Examples 1 and 2, PET)?
The value was “about 53%”.

What about the “time of maximum amount in contact with the frontal cavity” value [4] of the same molecule?
The value was at most 30 s.

What about the “time of maximum amount in contact with the inferior concha region” value [4] of the same molecule?
Its value is “about 3.5 minutes”.

What about the “time of maximum amount in contact with the superior concha region” value [4] of the same molecule?
Its value is “about 25 seconds”.

What about the “time of maximum deposit in the maxillary and frontal sinuses” value [4] of the same molecule?
The value was at most 30 s.

What about the “sum of percentages remaining on the target sites (dose deposited directly onto target tissues)” value (second volunteer, two hour serial sampling period) of the same molecule?
The value was “about 85.6%”.

What about the “dose in the frontal sinus” value [5] of the same molecule?
The value was “about 1.6%”.

And the “dose in the maxillary sinus” value [5]?
The value was “about 1.4%”.

What about the “dose remaining deposited on the inferior concha” value [5] of the same molecule?
Its value is “About 23.5%”.

And the “dose remaining deposited on the superior concha” value [5]?
Its value is “about 6.9%”.

And the “total percentage of the dose remaining deposited on the concha region” value [5]?
Its value is “about 30.4%”.

And the “dose remaining deposited in the frontal cavity” value (second volunteer, two hours post-drug administration, share of total remaining in 104 regions)?
Its value is “about 52.2%”.
